“Also recorded” adds a separate entry of the source.
Columns and labels:
[1] = cited from earlier work
[2] = test system: cAMP levels in MCF-7 cells; assay: cAMP radioimmunoassay; type: cell-based; conditions: 5 minutes; for cAMP accumulation / production: exendin-4 5 nM, GLP-1 5 nM, exendin (9-39) 100 nM, 2′5′-dideoxy adenosine 30 μM (60 minutes preincubation)
Experimental: cAMP measurements: For cAMP measurement, a radioimmunoassay was carried out as follows: cells and 100 μl media were snap frozen in liquid nitrogen, thawed and diluted in buffer acetate. […] Bound cAMP was precipitated and counted in a γ-counter, and concentration determined using a standard curve and positive controls.

[3] = in vivo; cited from earlier work
MCF-7 cells [4] = conditions: human, 72 h, 50 nM
Experimental: Doxorubicin is a commonly used chemotherapy against breast cancer.
Media and treatments were changed once after 48 hrs. After 72 hrs of incubation at 37° C., 5% CO2, the cells were cultured for four hours with 10% MIT reagent (5 mg/ml; Sigma-Aldrich). The medium was aspirated, and the cells were dissolved by dimethyl sulfoxide (DMSO). Absorbance of the formazan product was measured by an enzyme-linked immunosorbent assay reader.

MCF-7 cells [5] = assay: cells; type: cell-based; conditions: Homo sapiens, MCF7, read-out: inhibition of cell viability
Source text: Human embryonic kidney HEK-293 and primary liver cells were used as controls.
Medium was replaced once after 48 hrs.

[6] = test system: CREB, p38, ERK1/2, AKT, AMPK in MCF-7 cells; assay: Western blot of signaling pathways (CREB, p38, ERK1/2, AKT, AMPK, ACC); type: cell-based; conditions: for AMPK and ACC phosphorylation (AMP kinase activity): comparable to the AMPK activator AICAR
Experimental: 50 μg protein extracts were loaded on 10% polyacrylamide gels, separated electrophoretically and blotted from the gel onto nitrocellulose membrane (Schleicher & Schuell Bioscience GmbH, Dassel, Del.). The membranes were then immunoblotted with the indicated antibodies. Band intensities were quantified using ImageJ software. Colony assays: 200 cells/well were plated on 12-well plate. […] Medium was replaced twice a week and at day 14, the cells were stained using crystal violet. Quantification of the results was performed using ImageJ.

Molecule | cAMP accumulation / production [2] | crossing of the blood-brain barrier [3] | p38 MAPK activation / phosphorylation [6] | CREB phosphorylation ([6]; 15 minutes) | AMPK and ACC phosphorylation (AMP kinase activity) [6] | also measured
N[C@@H](CC(=O)N1CCn2c(nnc2C(F)(F)F)C1)Cc1cc(F)c(F)cc1F [Sitagliptin, (2R)-4-oxo-4-[3-(trifluoromethyl)-5,6-dihydro[1,2,4]triazolo[4,3-a]pyrazin-7(8H)-yl]-1-(2,4,5-trifluorophenyl)butan-2-amine] | – | – | – | – | – | eliminated without being metabolized ([1]; human subjects, via the kidney): 74%; half life ([1]; in vivo): 8 to 12 h
C[C@H]1O[C@@H](n2cnc3c(N)ncnc32)C[C@@H]1O [ddA, 2′5′ dideoxy-adenosine] | inhibited | – | – | – | – | –
COc1cccc2c1C(=O)c1c(O)c3c(c(O)c1C2=O)C[C@@](O)(C(=O)CO)C[C@@H]3O[C@H]1C[C@H](N)[C@H](O)[C@H](C)O1 [doxorubicin] | – | does not cross the blood-brain barrier | – | – | – | reduction of viability (MCF-7 cells [4]): 20%
C=C[C@@]1(C)CC(=O)[C@]2(O)[C@@]3(C)[C@@H](O)CCC(C)(C)[C@@H]3[C@H](O)[C@H](OC(C)=O)[C@@]2(C)O1 [forskolin] | – | – | – | – | – | cytotoxicity at 1 µM (MCF-7 cells [5]): 60%; elevation of cAMP levels ([2]; forskolin 1 μM): 6 fold
Glucagon-like peptide 1 [GLP-1] | elevated; also recorded: similar | able to cross the blood-brain barrier | induced; also recorded: activated | induced; also recorded: CREB phosphorylation | phosphorylated | ERK1/2 and AKT pathways ([6]; 15 minutes): Neither GLP-1 nor exendin-4 affected; also recorded: neither ERK1/2 nor AKT were affected
exendin(9-39) | increased cAMP accumulation similarly to exendin-4 and GLP-1 | – | enhanced | enhanced | phosphorylated | –

From patent US20110046071A1 (TEL HASHOMER MEDICAL RESEARCH INFRASTRUCTURE AND SERVICES …, priority 2008, published 2011)
